# Experimental data reported in ChEMBL document CHEMBL5252541, “Repurposing antipsychotic drugs into antifungal agents: Synergistic combinations of azoles and bromperidol derivatives in the treatment of various fungal infections” (Eur J Med Chem, 2017).
# Key:
# Candida albicans [1] = assay: Additive antifungal activity against Candida albicans ATCC 10231 assessed as fractional inhibitory concentration index measured for 72 hrs in presence of itraconazole; format: functional
# Candida albicans [2] = assay: Partial synergistic antifungal activity against Candida albicans MYA-2876 assessed as fractional inhibitory concentration index measured for 72 hrs in presence of posaconazole; format: functional
# Candida albicans [3] = assay: Synergistic antifungal activity against Candida albicans ATCC 10231 assessed as compound MIC measured after 48 hrs in presence of posaconazole by checkboard based microplate reader analysis; format: functional
# Nakaseomyces glabratus [4] = assay: Additive antifungal activity against Candida glabrata ATCC 2001 assessed as fractional inhibitory concentration index measured for 72 hrs in presence of voriconazole; format: functional
# Candida albicans [5] = assay: Synergistic antifungal activity against Candida albicans ATCC 64124 assessed as fractional inhibitory concentration index measured for 72 hrs in presence of posaconazole; format: functional
# Candida albicans [6] = assay: Antifungal activity against Candida albicans ATCC MYA-2876 measured after 48 hrs by broth microdilution analysis; format: functional
# Aspergillus terreus [7] = assay: Additive antifungal activity against Aspergillus terreus ATCC MYA-3633 assessed as fractional inhibitory concentration index measured for 72 hrs in presence of posaconazole; format: functional
# Candida albicans [8] = assay: Antifungal activity against Candida albicans ATCC MYA-1237 measured after 48 hrs by broth microdilution analysis; format: functional
# Candida albicans [9] = assay: Additive antifungal activity against Candida albicans ATCC MYA-2310 assessed as fractional inhibitory concentration index measured for 72 hrs in presence of voriconazole; format: functional
# Candida albicans [10] = assay: Partial synergistic antifungal activity against Candida albicans ATCC MYA-1003 assessed as fractional inhibitory concentration index measured for 72 hrs in presence of posaconazole; format: functional
# Candida albicans [11] = assay: Additive antifungal activity against Candida albicans MYA-1003 assessed as fractional inhibitory concentration index measured for 72 hrs in presence of voriconazole
# Candida albicans [12] = assay: Partial synergistic antifungal activity against Candida albicans ATCC MYA-1003 assessed as fractional inhibitory concentration index measured for 72 hrs in presence of voriconazole; format: functional
# Candida albicans [13] = assay: Synergistic antifungal activity against Candida albicans ATCC 10231 assessed as compound MIC measured after 48 hrs in presence of fluconazole by checkboard based microplate reader analysis; format: functional
# Aspergillus terreus [14] = assay: Antifungal activity against Aspergillus terreus ATCC MYA-3633 measured after 48 hrs by broth microdilution analysis; format: functional
# Nakaseomyces glabratus [15] = assay: Additive antifungal activity against Candida glabrata ATCC 2001 assessed as fractional inhibitory concentration index measured for 72 hrs in presence of posaconazole; format: functional
# Candida albicans [16] = assay: Partial synergistic antifungal activity against Candida albicans ATCC 64124 assessed as fractional inhibitory concentration index measured for 72 hrs in presence of voriconazole; format: functional
# Candida albicans [17] = assay: Synergistic antifungal activity against Candida albicans ATCC 64124 assessed as compound MIC measured after 48 hrs in presence of ketoconazole by checkboard based microplate reader analysis; format: functional
# Nakaseomyces glabratus [18] = assay: Antifungal activity against Candida glabrata ATCC 2001 measured after 48 hrs by broth microdilution analysis; format: functional
# Candida albicans [19] = assay: Synergistic antifungal activity against Candida albicans ATCC 90819 assessed as fractional inhibitory concentration index measured for 72 hrs in presence of voriconazole; format: functional
# Candida albicans [20] = assay: Antifungal activity against Candida albicans ATCC 64124 measured after 48 hrs by broth microdilution analysis; format: functional
# Candida albicans [21] = assay: Antifungal activity against Candida albicans ATCC MYA-1003 measured after 48 hrs by broth microdilution analysis; format: functional
# Candida albicans [22] = assay: Antifungal activity against Candida albicans ATCC 10231 measured after 48 hrs by broth microdilution analysis; format: functional
# Candida albicans [23] = assay: Synergistic antifungal activity against Candida albicans ATCC 10231 assessed as compound MIC measured after 48 hrs in presence of ketoconazole by checkboard based microplate reader analysis; format: functional
# Candida albicans [24] = assay: Synergistic antifungal activity against Candida albicans ATCC 64124 assessed as compound MIC measured after 48 hrs in presence of fluconazole by checkboard based microplate reader analysis; format: functional
# Candida albicans [25] = assay: Partial synergistic antifungal activity against Candida albicans ATCC 10231 assessed as fractional inhibitory concentration index measured for 72 hrs in presence of voriconazole; format: functional
# Candida albicans [26] = assay: Synergistic antifungal activity against Candida albicans ATCC 64124 assessed as compound MIC measured after 48 hrs in presence of posaconazole by checkboard based microplate reader analysis; format: functional
# Candida albicans [27] = assay: Partial synergistic antifungal activity against Candida albicans ATCC 90819 assessed as fractional inhibitory concentration index measured for 72 hrs in presence of posaconazole; format: functional
# Candida albicans [28] = assay: Additive antifungal activity against Candida albicans ATCC 10231 assessed as fractional inhibitory concentration index measured for 72 hrs in presence of fluconazole; format: functional
# Candida albicans [29] = assay: Partial synergistic antifungal activity against Candida albicans ATCC 64124 assessed as fractional inhibitory concentration index measured for 72 hrs in presence of ketoconazole; format: functional
# Candida albicans [30] = assay: Additive antifungal activity against Candida albicans ATCC MYA-2876 assessed as fractional inhibitory concentration index measured for 72 hrs in presence of voriconazole; format: functional
# Candida albicans [31] = assay: Synergistic antifungal activity against Candida albicans ATCC 10231 assessed as compound MIC measured after 48 hrs in presence of itraconazole by checkboard based microplate reader analysis; format: functional
# Candida albicans [32] = assay: Additive antifungal activity against Candida albicans ATCC MYA-1237 assessed as fractional inhibitory concentration index measured for 72 hrs in presence of voriconazole; format: functional
# Candida albicans [33] = assay: Partial synergistic antifungal activity against Candida albicans ATCC 10231 assessed as fractional inhibitory concentration index measured for 72 hrs in presence of ketoconazole; format: functional
# Candida albicans [34] = assay: Additive antifungal activity against Candida albicans ATCC MYA-1237 assessed as fractional inhibitory concentration index measured for 72 hrs in presence of posaconazole; format: functional
# Candida albicans [35] = assay: Synergistic antifungal activity against Candida albicans ATCC 10231 assessed as compound MIC measured after 48 hrs in presence of voriconazole by checkboard based microplate reader analysis; format: functional
# Aspergillus terreus [36] = assay: Additive antifungal activity against Aspergillus terreus ATCC MYA-3633 assessed as fractional inhibitory concentration index measured for 72 hrs in presence of voriconazole; format: functional
# Candida albicans [37] = assay: Additive antifungal activity against Candida albicans ATCC 64124 assessed as fractional inhibitory concentration index measured for 72 hrs in presence of itraconazole; format: functional
# Candida albicans [38] = assay: Synergistic antifungal activity against Candida albicans ATCC 64124 assessed as compound MIC measured after 48 hrs in presence of itraconazole by checkboard based microplate reader analysis; format: functional
# Candida albicans [39] = assay: Synergistic antifungal activity against Candida albicans ATCC 64124 assessed as compound MIC measured after 48 hrs in presence of voriconazole by checkboard based microplate reader analysis; format: functional
# Candida albicans [40] = assay: Additive antifungal activity against Candida albicans ATCC 64124 assessed as fractional inhibitory concentration index measured for 72 hrs in presence of fluconazole; format: functional
# Candida albicans [41] = assay: Antifungal activity against Candida albicans ATCC MYA-2310 measured after 48 hrs by broth microdilution analysis; format: functional
# Candida albicans [42] = assay: Antifungal activity against Candida albicans ATCC 90819 measured after 48 hrs by broth microdilution analysis; format: functional
# Candida albicans [43] = assay: Additive antifungal activity against Candida albicans ATCC 64124 assessed as fractional inhibitory concentration index measured for 72 hrs in presence of ketoconazole; format: functional
# Candida albicans [44] = assay: Additive antifungal activity against Candida albicans ATCC 90819 assessed as fractional inhibitory concentration index measured for 72 hrs in presence of posaconazole; format: functional
# Candida albicans [45] = assay: Additive antifungal activity against Candida albicans ATCC 90819 assessed as fractional inhibitory concentration index measured for 72 hrs in presence of voriconazole; format: functional
# Candida albicans [46] = assay: Additive antifungal activity against Candida albicans ATCC MYA-2876 assessed as fractional inhibitory concentration index measured for 72 hrs in presence of posaconazole; format: functional
# Candida albicans [47] = assay: Partial synergistic antifungal activity against Candida albicans ATCC 10231 assessed as fractional inhibitory concentration index measured for 72 hrs in presence of posaconazole; format: functional
# Candida albicans [48] = assay: Additive antifungal activity against Candida albicans MYA-1003 assessed as fractional inhibitory concentration index measured for 72 hrs in presence of posaconazole
# Candida albicans [49] = assay: Additive antifungal activity against Candida albicans ATCC MYA-2310 assessed as fractional inhibitory concentration index measured for 72 hrs in presence of posaconazole; format: functional
smiles,measurement,setting,value
O=C(CCCN1CCC(O)(c2ccc(Br)cc2)CC1)c1ccc(Cl)cc1,fractional inhibitory concentration index (FICI),Candida albicans [1],2
same,fractional inhibitory concentration index (FICI),Candida albicans [2],0.52
same,MIC,Candida albicans [3],4 µg/mL
same,fractional inhibitory concentration index (FICI),Nakaseomyces glabratus [4],2
same,fractional inhibitory concentration index (FICI),Candida albicans [5],0.19
same,MIC,Candida albicans [6],> 32 µg/mL
same,fractional inhibitory concentration index (FICI),Aspergillus terreus [7],2
same,MIC,Candida albicans [8],> 32 µg/mL
same,fractional inhibitory concentration index (FICI),Candida albicans [9],1
same,fractional inhibitory concentration index (FICI),Candida albicans [10],0.53
same,fractional inhibitory concentration index (FICI),Candida albicans [11],0.75
same,fractional inhibitory concentration index (FICI),Candida albicans [12],0.75
same,MIC,Candida albicans [13],16 µg/mL
same,MIC,Aspergillus terreus [14],> 32 µg/mL
same,fractional inhibitory concentration index (FICI),Nakaseomyces glabratus [15],2
same,fractional inhibitory concentration index (FICI),Candida albicans [16],0.63
same,MIC,Candida albicans [17],0.5 µg/mL
same,MIC,Nakaseomyces glabratus [18],> 32 µg/mL
same,fractional inhibitory concentration index (FICI),Candida albicans [19],0.31
same,MIC,Candida albicans [20],> 32 µg/mL
same,MIC,Candida albicans [21],> 32 µg/mL
same,MIC,Candida albicans [22],> 32 µg/mL
same,MIC,Candida albicans [23],16 µg/mL
same,MIC,Candida albicans [24],> 32 µg/mL
same,fractional inhibitory concentration index (FICI),Candida albicans [25],0.75
same,MIC,Candida albicans [26],4 µg/mL
same,fractional inhibitory concentration index (FICI),Candida albicans [27],0.52
same,fractional inhibitory concentration index (FICI),Candida albicans [28],1.5
same,fractional inhibitory concentration index (FICI),Candida albicans [29],0.52
same,fractional inhibitory concentration index (FICI),Candida albicans [30],1
same,MIC,Candida albicans [31],> 32 µg/mL
same,fractional inhibitory concentration index (FICI),Candida albicans [32],1
same,fractional inhibitory concentration index (FICI),Candida albicans [33],0.75
same,fractional inhibitory concentration index (FICI),Candida albicans [34],1.02
same,MIC,Candida albicans [35],16 µg/mL
same,fractional inhibitory concentration index (FICI),Aspergillus terreus [36],2
same,fractional inhibitory concentration index (FICI),Candida albicans [37],2
same,MIC,Candida albicans [38],> 32 µg/mL
same,MIC,Candida albicans [39],16 µg/mL
same,fractional inhibitory concentration index (FICI),Candida albicans [40],2
same,MIC,Candida albicans [41],> 32 µg/mL
same,MIC,Candida albicans [42],> 32 µg/mL
O=C(CCCN1CCC(O)(c2ccc(Br)cc2)CC1)c1ccccc1,fractional inhibitory concentration index (FICI),Candida albicans [1],1.5
same,MIC,Candida albicans [3],16 µg/mL
same,fractional inhibitory concentration index (FICI),Candida albicans [43],1
same,fractional inhibitory concentration index (FICI),Nakaseomyces glabratus [4],1.01
same,fractional inhibitory concentration index (FICI),Candida albicans [5],0.19
same,MIC,Candida albicans [6],> 64 µg/mL
same,fractional inhibitory concentration index (FICI),Aspergillus terreus [7],1.25
same,MIC,Candida albicans [8],> 64 µg/mL
same,fractional inhibitory concentration index (FICI),Candida albicans [9],2
same,fractional inhibitory concentration index (FICI),Candida albicans [11],1.06
same,fractional inhibitory concentration index (FICI),Candida albicans [44],1
same,fractional inhibitory concentration index (FICI),Candida albicans [45],1
same,MIC,Candida albicans [13],64 µg/mL
same,MIC,Aspergillus terreus [14],> 64 µg/mL
same,fractional inhibitory concentration index (FICI),Candida albicans [46],2
same,fractional inhibitory concentration index (FICI),Nakaseomyces glabratus [15],0.56
same,fractional inhibitory concentration index (FICI),Candida albicans [16],0.75
same,MIC,Candida albicans [17],32 µg/mL
same,MIC,Nakaseomyces glabratus [18],> 64 µg/mL
same,MIC,Candida albicans [20],> 64 µg/mL
same,MIC,Candida albicans [21],> 64 µg/mL
same,MIC,Candida albicans [22],> 64 µg/mL
same,MIC,Candida albicans [23],> 64 µg/mL
same,MIC,Candida albicans [24],> 64 µg/mL
same,fractional inhibitory concentration index (FICI),Candida albicans [47],0.75
same,fractional inhibitory concentration index (FICI),Candida albicans [25],0.63
same,MIC,Candida albicans [26],8 µg/mL
same,fractional inhibitory concentration index (FICI),Candida albicans [28],2
same,fractional inhibitory concentration index (FICI),Candida albicans [30],2
same,MIC,Candida albicans [31],64 µg/mL
same,fractional inhibitory concentration index (FICI),Candida albicans [48],1.03
same,fractional inhibitory concentration index (FICI),Candida albicans [49],1.01
same,MIC,Candida albicans [35],8 µg/mL
same,fractional inhibitory concentration index (FICI),Aspergillus terreus [36],2
same,fractional inhibitory concentration index (FICI),Candida albicans [37],2
same,MIC,Candida albicans [38],> 64 µg/mL
same,MIC,Candida albicans [39],32 µg/mL
same,fractional inhibitory concentration index (FICI),Candida albicans [40],2
same,MIC,Candida albicans [41],> 64 µg/mL
same,MIC,Candida albicans [42],> 64 µg/mL
